Results published in BindingDB's records for doi:10.1002/(SICI)1098-2396(200002)35:2<79::AID-SYN1>3.0.CO;2-X (Institut De Recherches Servier, 2000).
Several values for one entry are separate records, joined by “and”; a condition that tells them apart may be missing. Equal entries are not always repeated.

What was measured:
[1] = molecular target: T1, 5-hydroxytryptamine receptor 1A (Homo sapiens, UniProt P08908)
T1 sequence (P08908 whole entry): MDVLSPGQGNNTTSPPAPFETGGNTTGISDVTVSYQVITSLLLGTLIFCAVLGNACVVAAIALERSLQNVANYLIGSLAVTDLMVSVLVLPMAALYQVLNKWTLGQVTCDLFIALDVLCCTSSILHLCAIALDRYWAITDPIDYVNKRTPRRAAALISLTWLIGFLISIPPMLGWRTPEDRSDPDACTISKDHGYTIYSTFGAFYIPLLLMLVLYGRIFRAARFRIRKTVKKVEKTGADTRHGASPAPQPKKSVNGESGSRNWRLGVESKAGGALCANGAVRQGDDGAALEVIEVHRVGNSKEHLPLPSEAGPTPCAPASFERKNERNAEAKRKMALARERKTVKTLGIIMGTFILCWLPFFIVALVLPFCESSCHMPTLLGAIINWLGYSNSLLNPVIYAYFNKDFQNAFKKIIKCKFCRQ

[2] = molecular target: T2, Alpha-2A adrenergic receptor [16-465] (Rattus norvegicus, UniProt P22909)
T2 construct: 16-465
T2 sequence (P22909 whole entry): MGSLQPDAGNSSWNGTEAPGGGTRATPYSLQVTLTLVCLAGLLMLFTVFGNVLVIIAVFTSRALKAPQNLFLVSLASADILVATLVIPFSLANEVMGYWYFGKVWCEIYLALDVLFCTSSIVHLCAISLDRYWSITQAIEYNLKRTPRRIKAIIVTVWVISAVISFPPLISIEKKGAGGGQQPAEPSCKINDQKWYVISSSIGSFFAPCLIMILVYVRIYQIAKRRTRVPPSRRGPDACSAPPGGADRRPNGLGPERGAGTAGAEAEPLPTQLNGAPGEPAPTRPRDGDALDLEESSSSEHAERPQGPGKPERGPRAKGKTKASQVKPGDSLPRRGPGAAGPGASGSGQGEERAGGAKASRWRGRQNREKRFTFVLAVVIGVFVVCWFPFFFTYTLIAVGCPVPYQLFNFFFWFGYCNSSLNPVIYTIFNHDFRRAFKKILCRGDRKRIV

[3] = molecular target: 5-hydroxytryptamine receptor 2A (Rattus norvegicus, UniProt P14842)
[4] = molecular target: D(2) dopamine receptor (Homo sapiens, UniProt P14416)
[5] = molecular target: T3, Alpha-1A adrenergic receptor (Rattus norvegicus, UniProt P43140)
T3 sequence (P43140 whole entry): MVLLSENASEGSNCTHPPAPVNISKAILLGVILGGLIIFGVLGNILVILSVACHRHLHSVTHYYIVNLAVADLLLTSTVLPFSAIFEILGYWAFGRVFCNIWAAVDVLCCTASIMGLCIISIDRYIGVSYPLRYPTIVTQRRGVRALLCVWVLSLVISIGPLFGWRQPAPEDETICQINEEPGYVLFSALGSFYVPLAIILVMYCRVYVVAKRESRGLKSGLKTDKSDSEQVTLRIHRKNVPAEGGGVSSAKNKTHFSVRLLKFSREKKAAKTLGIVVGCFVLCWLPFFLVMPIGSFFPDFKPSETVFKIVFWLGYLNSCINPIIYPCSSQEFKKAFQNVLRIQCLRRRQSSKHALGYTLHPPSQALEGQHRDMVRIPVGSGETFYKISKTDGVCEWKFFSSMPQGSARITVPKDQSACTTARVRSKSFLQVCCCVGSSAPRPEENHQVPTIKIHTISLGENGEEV

[6] = molecular target: 5-hydroxytryptamine receptor 1B (Cavia porcellus, UniProt O08892)
[7] = molecular target: T4, Alpha-1D adrenergic receptor (Homo sapiens, UniProt P25100)
T4 sequence (P25100 whole entry): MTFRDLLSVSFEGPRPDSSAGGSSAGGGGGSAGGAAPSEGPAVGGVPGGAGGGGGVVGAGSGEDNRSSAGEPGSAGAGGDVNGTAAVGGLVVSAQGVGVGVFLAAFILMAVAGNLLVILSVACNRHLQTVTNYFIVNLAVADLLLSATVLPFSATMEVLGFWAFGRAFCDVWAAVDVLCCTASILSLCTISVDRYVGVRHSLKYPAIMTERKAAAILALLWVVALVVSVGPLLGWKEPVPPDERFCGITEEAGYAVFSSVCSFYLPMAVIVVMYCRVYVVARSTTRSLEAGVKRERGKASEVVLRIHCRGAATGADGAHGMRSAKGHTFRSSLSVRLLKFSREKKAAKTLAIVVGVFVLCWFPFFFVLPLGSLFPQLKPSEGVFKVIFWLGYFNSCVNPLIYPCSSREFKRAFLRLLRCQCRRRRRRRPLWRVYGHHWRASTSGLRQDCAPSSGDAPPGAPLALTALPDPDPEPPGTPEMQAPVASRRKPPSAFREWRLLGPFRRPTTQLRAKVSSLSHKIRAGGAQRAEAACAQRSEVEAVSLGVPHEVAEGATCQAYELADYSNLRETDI

[8] = molecular target: T5, Alpha-2A adrenergic receptor (Homo sapiens, UniProt P08913)
T5 sequence (P08913 whole entry): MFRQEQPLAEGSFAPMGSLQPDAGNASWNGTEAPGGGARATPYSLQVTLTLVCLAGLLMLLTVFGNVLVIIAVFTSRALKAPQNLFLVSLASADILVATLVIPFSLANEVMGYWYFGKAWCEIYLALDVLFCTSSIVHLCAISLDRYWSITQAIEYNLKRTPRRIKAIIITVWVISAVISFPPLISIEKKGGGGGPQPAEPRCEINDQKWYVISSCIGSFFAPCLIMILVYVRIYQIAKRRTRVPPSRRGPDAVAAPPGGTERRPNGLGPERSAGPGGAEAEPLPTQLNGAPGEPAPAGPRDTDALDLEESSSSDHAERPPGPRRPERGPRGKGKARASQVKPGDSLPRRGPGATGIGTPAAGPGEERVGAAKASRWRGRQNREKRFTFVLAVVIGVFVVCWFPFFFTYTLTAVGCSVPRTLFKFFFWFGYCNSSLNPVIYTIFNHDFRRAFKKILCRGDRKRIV

Sequence of D(2) dopamine receptor (P14416 whole entry): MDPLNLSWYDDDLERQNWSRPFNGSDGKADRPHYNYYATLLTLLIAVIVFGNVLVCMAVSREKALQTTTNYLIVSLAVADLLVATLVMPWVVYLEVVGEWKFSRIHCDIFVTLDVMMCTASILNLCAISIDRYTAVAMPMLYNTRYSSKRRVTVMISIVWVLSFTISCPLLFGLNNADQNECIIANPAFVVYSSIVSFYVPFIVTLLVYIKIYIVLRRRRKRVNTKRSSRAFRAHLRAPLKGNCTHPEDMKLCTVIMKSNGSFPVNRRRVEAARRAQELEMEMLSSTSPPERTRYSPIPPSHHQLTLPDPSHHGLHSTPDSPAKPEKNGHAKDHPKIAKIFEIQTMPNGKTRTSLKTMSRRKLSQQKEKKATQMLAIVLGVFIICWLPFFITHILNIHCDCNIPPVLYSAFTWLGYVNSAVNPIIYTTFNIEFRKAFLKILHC
Sequence of 5-hydroxytryptamine receptor 1B (O08892 whole entry): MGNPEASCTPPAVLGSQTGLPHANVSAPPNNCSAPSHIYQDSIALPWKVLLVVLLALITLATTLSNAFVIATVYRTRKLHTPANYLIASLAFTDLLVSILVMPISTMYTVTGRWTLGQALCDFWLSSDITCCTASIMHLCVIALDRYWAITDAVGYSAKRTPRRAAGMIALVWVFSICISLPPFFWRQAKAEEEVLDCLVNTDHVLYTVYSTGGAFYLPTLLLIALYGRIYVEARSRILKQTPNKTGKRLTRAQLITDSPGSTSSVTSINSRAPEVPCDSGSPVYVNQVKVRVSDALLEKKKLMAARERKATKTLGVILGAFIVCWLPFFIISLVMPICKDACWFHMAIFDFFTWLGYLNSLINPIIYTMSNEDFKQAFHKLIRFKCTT
Sequence of 5-hydroxytryptamine receptor 2A (P14842 whole entry): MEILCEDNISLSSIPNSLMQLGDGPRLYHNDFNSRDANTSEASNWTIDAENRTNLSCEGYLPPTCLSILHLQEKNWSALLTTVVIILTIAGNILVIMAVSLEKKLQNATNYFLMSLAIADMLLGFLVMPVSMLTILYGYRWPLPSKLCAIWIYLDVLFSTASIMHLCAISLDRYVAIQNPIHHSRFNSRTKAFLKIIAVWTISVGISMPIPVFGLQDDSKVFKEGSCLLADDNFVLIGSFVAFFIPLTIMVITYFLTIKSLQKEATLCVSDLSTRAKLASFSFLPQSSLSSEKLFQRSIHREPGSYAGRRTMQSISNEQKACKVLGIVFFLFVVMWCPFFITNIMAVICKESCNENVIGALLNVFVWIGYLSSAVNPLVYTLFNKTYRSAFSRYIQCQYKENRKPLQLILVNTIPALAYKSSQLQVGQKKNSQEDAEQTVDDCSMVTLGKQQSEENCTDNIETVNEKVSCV

For Fc1cccc2c1OC1CNCC1O2 (stereo not drawn) [CAS_105182-45-4], which Ki [1] is on record?
The Ki was 158 nM.

And the Ki [2]?
The Ki was 1.25 nM.

And the Ki [3]?
Its Ki is 1000 nM.

What about the Ki [4] of the same compound?
The Ki was 1000 nM.

What about the Ki [5] of the same compound?
The Ki was 794 nM.

What about the Ki [6] of the same compound?
The Ki was 1000 nM.

What about the Ki [7] of the same compound?
Its Ki is 126 nM.

What about the Ki [8] of the same compound?
The Ki was 7.94 nM and 6.3 nM.
